How the values were obtained:
johnsongrass = assay: Test E preemergence; format: in vivo, Sorghum halepense; details: 21 days, scale 0 to 100
Description: (§1) Seeds of plant species selected from bermudagrass (Cynodon dactylon), Surinam grass (Brachiaria decumbens), crabgrass, large (large crabgrass, Digitaria sanguinalis), crabgrass, naked (naked crabgrass, Digitaria nuda), foxtail, green (green foxtail, Setaria viridis), johnsongrass (Sorghum halepense), kochia (Kochia scoparia), morningglory (pitted morningglory, Ipomoea lacunosa), nutsedge, purple (purple nutsedge, Cyperus rotundus), ragweed (common ragweed, Ambrosia elation), mustard, black (black mustard, Brassica nigra), guineagrass (Panicum maximum), dallisgrass (Paspalum dilatatum), barnyardgrass (Echinochloa crus-galli), sandbur (southern sandbur, Cenchrus echinatus), sowthistle (common sowthistle, Sonchus oleraceous), ryegrass, Italian (Italian ryegrass, Lolium multiflorum), signalgrass (broadleaf signalgrass, Brachiaria platyphylla), dayflower, VA (Virginia (VA) dayflower, Commelina virginica), bluegrass (annual bluegrass, Poa annua), quackgrass (Elytrigia repens), mallow (common mallow, Malva sylvestris), buckwheat, wild (wild buckwheat, Polygonum convolvulus), leafy spurge (Euphorbia esula), common chickweed (Stellaria media), wild poinsettia (Euphorbia heterophylla), pigweed, palmer (palmer pigweed, Amaranthus palmeri), and pigweed (redroot pigweed, Amaranthus retroflexus) were planted into a blend of loam soil and sand and treated preemergence with test chemicals formulated in a non-phytotoxic solvent mixture which included a surfactant.
(§2) Treated plants and controls were maintained in a greenhouse for 21 days, after which time all species were compared to controls and visually evaluated. Plant response ratings, summarized in Table E, are based on a scale of 0 to 100 where 0 is no effect and 100 is complete control. A dash (-) response means no test result.

soybean = assay: Test F postemergence; format: in vivo, Glycine max; details: scale 0 to 100
Description: (§3) Seeds of plant species selected from corn (Zea mays), soybean (Glycine max), velvetleaf (Abutilon theophrasti), lambsquarters (Chenopodium album), wild poinsettia (Euphorbia heterophylla), pigweed, palmer (palmer pigweed, Amaranthus palmeri), common waterhemp (Amaranthus rudis), surinam grass (Brachiaria decumbens), large crabgrass (Digitaria sanguinalis), crabgrass, Brazil (Brazilian crabgrass, Digitaria horizontalis), fall panicum (Panicum dichotomiflorum), giant foxtail (Setaria faberii), green foxtail (Setaria viridis), goosegrass (Eleusine indica), johnsongrass (Sorghum halepense), common ragweed (Ambrosia elation), barnyardgrass (Echinochloa crus-galli), southern sandbur (Cenchrus echinatus), arrowleaf sida (Sida rhombifolia), Italian ryegrass (Lolium multiflorum), dayflower, VA (Virginia (VA) dayflower, Commelina virginica), field bindweed (Convolvulus arvensis), cocklebur (common cocklebur, Xanthium strumarium), morningglory (Ipomoea coccinea), nightshade (eastern black nightshade, Solanum ptycanthum), kochia (Kochia scoparia), yellow nutsedge (Cyperus esculentus), and hairy beggarticks (Bidens pilosa), were planted into a silt loam soil and treated preemergence with test chemicals formulated in a non-phytotoxic solvent mixture which included a surfactant.
(§4) At the same time, plants from these crop and weed species and also horseweed (Canada horseweed, Conyza canadensis), smartweed (ladysthumb smartweed, Polygonum persicaria), waterhemp_RES1, (ALS & Triazine resistant common waterhemp, Amaranthus rudis), and waterhemp_RES2, (ALS & HPPD resistant common waterhemp, Amaranthus rudis) were treated with postemergence applications of test chemicals formulated in the same manner. Plants ranged in height from 2 to 18 cm for postemergence treatments (1- to 4-leaf stage). Treated plants and controls were maintained in a greenhouse for 14 to 21 days, after which time all species were compared to controls and visually evaluated. Plant response ratings, summarized in Table F, are based on a scale of 0 to 100 where 0 is no effect and 100 is complete control. A dash (-) response means no test result.

Italian ryegrass = assay: Test F postemergence; format: in vivo, Lolium multiflorum; details: scale 0 to 100
Description: as §3, §4

pigweed = assay: Test E preemergence; format: in vivo, Amaranthus retroflexus; details: 21 days, scale 0 to 100
Description: as §1, §2

kochia = assay: Test E preemergence; format: in vivo, Kochia scoparia; details: 21 days, scale 0 to 100
Description: as §1, §2

leafy spurge = assay: Test E preemergence; format: in vivo, Euphorbia esula; details: 21 days, scale 0 to 100
Description: as §1, §2

crabgrass, naked = assay: Test E preemergence; format: in vivo, Digitaria nuda; details: 21 days, scale 0 to 100
Description: as §1, §2

In the case of CCCc1cc(C(=O)NCC(F)(F)F)nn1Cc1ccnc(C(F)(F)F)c1 [Compound 105], the “Plant response rating, Johnsongrass” value (johnsongrass; 16 g ai/ha) is reported as 35, the “Plant response rating, Johnsongrass” value (johnsongrass; 31 g ai/ha) is reported as 80 and the “Plant response rating, Johnsongrass” value (johnsongrass; 62 g ai/ha) is reported as 98. The “Plant response rating, Johnsongrass” value (johnsongrass; 125 g ai/ha) was 98, the “Plant response rating, Johnsongrass” value (johnsongrass; 250 g ai/ha) was 100 and the “Plant response rating, Soybean” value (soybean; Postemergence, 31 g ai/ha) was 70. For the same molecule, the “Plant response rating, Soybean” value (soybean; Postemergence, 125 g ai/ha) was 90, the “Plant response rating, Soybean” value (soybean; Postemergence, 250 g ai/ha) was 95 and the “Plant response rating, Soybean” value (soybean; postemergence, 62 g ai/ha) was 80. For the same molecule, the “Plant response rating, Soybean” value (soybean; postemergence, 500 g ai/ha) was 100, the “Plant response rating, Italian Ryegrass” value (Italian ryegrass; Postemergence, 31 g ai/ha) was 0 and the “Plant response rating, Italian Ryegrass” value (Italian ryegrass; Postemergence, 125 g ai/ha) was 30. The “Plant response rating, Italian Ryegrass” value (Italian ryegrass; Postemergence, 250 g ai/ha) was 65, the “Plant response rating, Italian Ryegrass” value (Italian ryegrass; postemergence, 62 g ai/ha) was 15 and the “Plant response rating, Italian Ryegrass” value (Italian ryegrass; postemergence, 500 g ai/ha) was 90. For the same molecule, the “Plant response rating, Pigweed” value (pigweed; 16 g ai/ha) was 100, the “Plant response rating, Pigweed” value (pigweed; 31 g ai/ha) was 100 and the “Plant response rating, Pigweed” value (pigweed; 62 g ai/ha) was 100. The “Plant response rating, Pigweed” value (pigweed; 125 g ai/ha) was 100, the “Plant response rating, Pigweed” value (pigweed; 250 g ai/ha) was 100 and the “Plant response rating, Kochia” value (kochia; 16 g ai/ha) was 100. The “Plant response rating, Kochia” value (kochia; 31 g ai/ha) was 100, the “Plant response rating, Kochia” value (kochia; 62 g ai/ha) was 100 and the “Plant response rating, Kochia” value (kochia; 125 g ai/ha) was 100. For the same molecule, the “Plant response rating, Kochia” value (kochia; 250 g ai/ha) was 100, the “Plant response rating, Leafy Spurge” value (leafy spurge; 16 g ai/ha) was 100 and the “Plant response rating, Leafy Spurge” value (leafy spurge; 31 g ai/ha) was 100. For the same molecule, the “Plant response rating, Leafy Spurge” value (leafy spurge; 62 g ai/ha) was 100, the “Plant response rating, Leafy Spurge” value (leafy spurge; 125 g ai/ha) was 100 and the “Plant response rating, Leafy Spurge” value (leafy spurge; 250 g ai/ha) was 100. The “Plant response rating, Crabgrass, Naked” value (crabgrass, naked; 16 g ai/ha) was 90, the “Plant response rating, Crabgrass, Naked” value (crabgrass, naked; 31 g ai/ha) was 100 and the “Plant response rating, Crabgrass, Naked” value (crabgrass, naked; 62 g ai/ha) was 100. For the same molecule, the “Plant response rating, Crabgrass, Naked” value (crabgrass, naked; 125 g ai/ha) was 100 and the “Plant response rating, Crabgrass, Naked” value (crabgrass, naked; 250 g ai/ha) was 100.
With CCOc1cc(C(=O)NC(C)C)nn1Cc1ccnc(C(F)(F)F)c1 [Compound 188] the “Plant response rating, Soybean” value (soybean; Postemergence, 31 g ai/ha) was 98, the “Plant response rating, Soybean” value (soybean; Postemergence, 125 g ai/ha) was 95 and the “Plant response rating, Soybean” value (soybean; Postemergence, 250 g ai/ha) was 98. The “Plant response rating, Soybean” value (soybean; postemergence, 62 g ai/ha) was 95, the “Plant response rating, Soybean” value (soybean; postemergence, 500 g ai/ha) was 98 and the “Plant response rating, Italian Ryegrass” value (Italian ryegrass; Postemergence, 31 g ai/ha) was 5. For the same molecule, the “Plant response rating, Italian Ryegrass” value (Italian ryegrass; Postemergence, 125 g ai/ha) was 30, the “Plant response rating, Italian Ryegrass” value (Italian ryegrass; Postemergence, 250 g ai/ha) was 60 and the “Plant response rating, Italian Ryegrass” value (Italian ryegrass; postemergence, 62 g ai/ha) was 10. For the same molecule, the “Plant response rating, Italian Ryegrass” value (Italian ryegrass; postemergence, 500 g ai/ha) was 85.
With CCOc1cc(C(=O)NC2CC2)nn1Cc1ccnc(C(F)(F)F)c1 [Compound 189] the “Plant response rating, Johnsongrass” value (johnsongrass; 4 g ai/ha) was 0, the “Plant response rating, Johnsongrass” value (johnsongrass; 8 g ai/ha) was 0 and the “Plant response rating, Johnsongrass” value (johnsongrass; 16 g ai/ha) was 25. For the same molecule, the “Plant response rating, Johnsongrass” value (johnsongrass; 31 g ai/ha) was 100, the “Plant response rating, Johnsongrass” value (johnsongrass; 62 g ai/ha) was 100 and the “Plant response rating, Pigweed” value (pigweed; 4 g ai/ha) was 60. The “Plant response rating, Pigweed” value (pigweed; 8 g ai/ha) was 60, the “Plant response rating, Pigweed” value (pigweed; 16 g ai/ha) was 100 and the “Plant response rating, Pigweed” value (pigweed; 31 g ai/ha) was 100. The “Plant response rating, Pigweed” value (pigweed; 62 g ai/ha) was 100, the “Plant response rating, Kochia” value (kochia; 4 g ai/ha) was 98 and the “Plant response rating, Kochia” value (kochia; 8 g ai/ha) was 100. The “Plant response rating, Kochia” value (kochia; 16 g ai/ha) was 100, the “Plant response rating, Kochia” value (kochia; 31 g ai/ha) was 100 and the “Plant response rating, Kochia” value (kochia; 62 g ai/ha) was 100. For the same molecule, the “Plant response rating, Leafy Spurge” value (leafy spurge; 4 g ai/ha) was 35, the “Plant response rating, Leafy Spurge” value (leafy spurge; 8 g ai/ha) was 75 and the “Plant response rating, Leafy Spurge” value (leafy spurge; 16 g ai/ha) was 100. For the same molecule, the “Plant response rating, Leafy Spurge” value (leafy spurge; 31 g ai/ha) was 100, the “Plant response rating, Leafy Spurge” value (leafy spurge; 62 g ai/ha) was 100 and the “Plant response rating, Crabgrass, Naked” value (crabgrass, naked; 4 g ai/ha) was 40. For the same molecule, the “Plant response rating, Crabgrass, Naked” value (crabgrass, naked; 8 g ai/ha) was 95, the “Plant response rating, Crabgrass, Naked” value (crabgrass, naked; 16 g ai/ha) was 100 and the “Plant response rating, Crabgrass, Naked” value (crabgrass, naked; 31 g ai/ha) was 100. For the same molecule, the “Plant response rating, Crabgrass, Naked” value (crabgrass, naked; 62 g ai/ha) was 100.
